Test results as given in ChEMBL document CHEMBL4715709, “Synthesis and evaluation of anticonvulsant properties of new N-Mannich bases derived from 3-(1-phenylethyl)- and 3-benzyl-pyrrolidine-2,5-dione” (Bioorg Med Chem Lett, 2016).
Active and inactive are the calls of the source. No cut-off for these calls is given here.

What was measured:
Mus musculus [1] = experiment: Anticonvulsant activity in mouse assessed as protection against ScPTZ-induced epilepsy at 300 mg/kg, ip measured after 0.5 hrs by subcutaneous pentylenetetrazole test; assay type: functional, organism-based
Mus musculus [2] = experiment: Anticonvulsant activity in mouse assessed as protection against ScPTZ-induced epilepsy at 300 mg/kg, ip measured after 4 hrs by subcutaneous pentylenetetrazole test; assay type: functional, organism-based
Mus musculus [3] = experiment: Anticonvulsant activity in mouse assessed as protection against tonic-clonic seizures at 300 mg/kg, ip measured after 4 hrs by maximal electroshock seizure test; assay type: functional, organism-based
Mus musculus [4] = experiment: Anticonvulsant activity in mouse assessed as protection against tonic-clonic seizures at 300 mg/kg, ip measured after 0.5 hrs by maximal electroshock seizure test; assay type: functional, organism-based
[5] = Neurotoxicity in mouse assessed as induction of motor impairment at 300 mg/kg, ip measured after 0.5 hrs by rotarod test; assay type: toxicity, organism-based; settings: in vivo
[6] = Neurotoxicity in mouse assessed as induction of motor impairment at 300 mg/kg, ip measured after 4 hrs by rotarod test; assay type: toxicity, organism-based; settings: in vivo
Mus musculus [7] = experiment: Anticonvulsant activity in ip dosed mouse assessed as minimum dose required for protection against ScPTZ-induced epilepsy measured after 4 hrs by subcutaneous pentylenetetrazole test; assay type: functional
Mus musculus [8] = experiment: Anticonvulsant activity in ip dosed mouse assessed as minimum dose required for protection against tonic-clonic seizures measured after 4 hrs by maximal electroshock seizure test; assay type: functional
[9] = Protection index, ratio of TD50 for neurotoxicity in ip dosed mouse to ED50 for anticonvulsant activity in ip dosed mouse measured after 0.5 hrs by 6 Hz limbic seizure test; assay type: toxicity, organism-based; settings: in vivo, read-out: PI
Mus musculus [10] = experiment: Anti-convulsant activity in mouse assessed as protection of animals against psychomotor seizures at 100 mg/kg, ip measured after 0.5 hrs by 6 Hz limbic seizure test; assay type: functional
Mus musculus [11] = experiment: Anti-convulsant activity in mouse assessed as protection of animals against psychomotor seizures at 100 mg/kg, ip measured after 4 hrs by 6 Hz limbic seizure test; assay type: functional
Mus musculus [12] = experiment: Anticonvulsant activity in ip dosed mouse assessed as minimum dose required for protection against tonic-clonic seizures measured after 0.5 hrs by maximal electroshock seizure test; assay type: functional
Mus musculus [13] = experiment: Anti-convulsant activity in ip dosed mouse assessed as protection against psychomotor seizures measured after 0.5 hrs by 6 Hz limbic seizure test; assay type: functional
[14] = Neurotoxicity activity in ip dosed mouse assessed as induction of motor impairment by rotarod test; assay type: toxicity, organism-based; settings: in vivo
[15] = Neurotoxicity in ip dosed mouse assessed as minimum dose required for induction of motor impairment measured after 0.5 hrs by rotarod test; assay type: toxicity, organism-based; settings: in vivo
Mus musculus [16] = experiment: Anticonvulsant activity in ip dosed mouse assessed as minimum dose required for protection against ScPTZ-induced epilepsy measured after 0.5 hrs by subcutaneous pentylenetetrazole test; assay type: functional

| Structure (SMILES) | Activity (Mus musculus [1]) | Activity (Mus musculus [2]) | Activity (Mus musculus [3]) | Activity (Mus musculus [4]) | Activity [5] | Activity [6] | MED=>50 (Mus musculus [7]) [mg/kg] | MED=>50 (Mus musculus [8]) [mg/kg] | selectivity ratio at 0.5 h [9] | Activity (Mus musculus [10]) [%] | Activity (Mus musculus [11]) [%] | minimum effective dose (Mus musculus [12]) [mg/kg] | ED50 (Mus musculus [13]) [mg/kg] | TD50 [14] [mg/kg] | MTD50 [15] [mg/kg] | MED=>50 (Mus musculus [16]) [mg/kg] |
| --- | --- | --- | --- | --- | --- | --- | --- | --- | --- | --- | --- | --- | --- | --- | --- | --- |
| COc1cccc(N2CCN(CN3C(=O)CC(C(C)c4ccccc4)C3=O)CC2)c1 (stereo not drawn) | inactive | inactive | inactive | inactive | Non-Toxic | Non-Toxic | – | – | – | – | – | – | – | – | – | – |
| CC(c1ccccc1)C1CC(=O)N(CN2CCN(c3cccc(Cl)c3Cl)CC2)C1=O (stereo not drawn) | inactive | inactive | inactive | inactive | Non-Toxic | Non-Toxic | – | – | – | – | – | – | – | – | – | – |
| CC(c1ccccc1)C1CC(=O)N(CN2CCN(c3ccc(Cl)c(Cl)c3)CC2)C1=O (stereo not drawn) | inactive | inactive | inactive | inactive | Non-Toxic | Non-Toxic | – | – | – | – | – | – | – | – | – | – |
| O=C1CC(Cc2ccccc2)C(=O)N1CN1CCC(Cc2ccccc2)CC1 (stereo not drawn) | inactive | inactive | inactive | inactive | Non-Toxic | Non-Toxic | – | – | – | – | – | – | – | – | – | – |
| CC(c1ccccc1)C1CC(=O)N(CN2CCN(c3ccccc3)CC2)C1=O (stereo not drawn) | inactive | inactive | inactive | inactive | Non-Toxic | Non-Toxic | – | – | – | – | – | – | – | – | – | – |
| CC(c1ccccc1)C1CC(=O)N(CN2CCN(c3ccccc3Cl)CC2)C1=O (stereo not drawn) | inactive | inactive | inactive | inactive | Non-Toxic | Non-Toxic | – | – | – | – | – | – | – | – | – | – |
| O=C1CC(Cc2ccccc2)C(=O)N1CN1CCN(C2CCCCC2)CC1 (stereo not drawn) | inactive | inactive | inactive | inactive | Non-Toxic | Non-Toxic | – | – | – | – | – | – | – | – | – | – |
| CC(c1ccccc1)C1CC(=O)N(CN2CCN(c3ccccc3F)CC2)C1=O (stereo not drawn) | inactive | inactive | inactive | inactive | Non-Toxic | Non-Toxic | – | – | – | – | – | – | – | – | – | – |
| COc1cccc(N2CCN(CN3C(=O)CC(Cc4ccccc4)C3=O)CC2)c1 (stereo not drawn) | inactive | inactive | inactive | inactive | Non-Toxic | Non-Toxic | – | – | – | – | – | – | – | – | – | – |
| CC(c1ccccc1)C1CC(=O)N(CN2CCN(c3ccc(F)cc3)CC2)C1=O (stereo not drawn) | inactive | inactive | inactive | inactive | Non-Toxic | Non-Toxic | – | – | – | – | – | – | – | – | – | – |
| CC(c1ccccc1)C1CC(=O)N(CN2CCN(Cc3ccccc3)CC2)C1=O (stereo not drawn) | inactive | inactive | inactive | inactive | Non-Toxic | Non-Toxic | – | – | – | – | – | – | – | – | – | – |
| O=C1CC(Cc2ccccc2)C(=O)N1CN1CCN(c2cccc(Cl)c2Cl)CC1 (stereo not drawn) | inactive | inactive | inactive | inactive | Non-Toxic | Non-Toxic | – | – | – | – | – | – | – | – | – | – |
| Cc1ccccc1N1CCN(CN2C(=O)CC(C(C)c3ccccc3)C2=O)CC1 (stereo not drawn) | inactive | inactive | inactive | inactive | Non-Toxic | Non-Toxic | – | – | – | – | – | – | – | – | – | – |
| Cl.O=C1CC(Cc2ccccc2)C(=O)N1CN1CCN(Cc2ccccc2)CC1 (racemic) | inactive | – | inactive | inactive | Non-Toxic | Non-Toxic | 100 | – | – | – | – | – | – | – | – | – |
| CC(c1ccccc1)C1CC(=O)N(CN2CCC(Cc3ccccc3)CC2)C1=O (racemic) | inactive | inactive | – | inactive | Non-Toxic | Non-Toxic | – | 300 | – | – | – | – | – | – | – | – |
| CC(c1ccccc1)C1CC(=O)N(CN2CCN(c3cccc(C(F)(F)F)c3)CC2)C1=O (racemic) | inactive | inactive | – | inactive | Non-Toxic | Non-Toxic | – | 300 | – | – | – | – | – | – | – | – |

| Structure (SMILES) | Activity (Mus musculus [1]) | Activity (Mus musculus [2]) | Activity (Mus musculus [3]) | Activity (Mus musculus [4]) | Activity [5] | Activity [6] | MED=>50 (Mus musculus [7]) [mg/kg] | MED=>50 (Mus musculus [8]) [mg/kg] | selectivity ratio at 0.5 h [9] | Activity (Mus musculus [10]) [%] | Activity (Mus musculus [11]) [%] | minimum effective dose (Mus musculus [12]) [mg/kg] | ED50 (Mus musculus [13]) [mg/kg] | TD50 [14] [mg/kg] | MTD50 [15] [mg/kg] | MED=>50 (Mus musculus [16]) [mg/kg] |
| --- | --- | --- | --- | --- | --- | --- | --- | --- | --- | --- | --- | --- | --- | --- | --- | --- |
| Cc1ccccc1N1CCN(CN2C(=O)CC(Cc3ccccc3)C2=O)CC1 (racemic) | inactive | inactive | inactive | inactive | Non-Toxic | Non-Toxic | – | – | – | – | – | – | – | – | – | – |
| Cl.O=C1CC(Cc2ccccc2)C(=O)N1CN1CCN(CCO)CC1 (racemic) | inactive | – | inactive | – | – | Non-Toxic | 300 | – | 4.85 | 100 | 0 | 300 | 71 | 344 | 300 | – |
| O=C1CC(Cc2ccccc2)C(=O)N1CN1CCN(c2ccccc2F)CC1 (racemic) | inactive | – | inactive | inactive | – | Non-Toxic | 300 | – | – | – | – | – | – | – | 300 | – |
| CC(c1ccccc1)C1CC(=O)N(CN2CCN(c3ccc(Cl)cc3)CC2)C1=O (racemic) | – | – | inactive | inactive | Non-Toxic | Non-Toxic | 300 | – | – | – | – | – | – | – | – | 300 |
| CC(c1ccccc1)C1CC(=O)N(CN2CCN(c3ncccn3)CC2)C1=O (racemic) | inactive | – | inactive | inactive | – | Non-Toxic | 300 | – | – | – | – | – | – | – | 300 | – |
| O=C1CC(Cc2ccccc2)C(=O)N1CN1CCN(c2cccc(C(F)(F)F)c2)CC1 (racemic) | inactive | inactive | – | – | – | Non-Toxic | – | 300 | – | – | – | 300 | – | – | 300 | – |
| COc1ccccc1N1CCN(CN2C(=O)CC(Cc3ccccc3)C2=O)CC1 (racemic) | – | inactive | inactive | inactive | – | Non-Toxic | – | – | – | – | – | – | – | – | 300 | 100 |
| Cc1cccc(N2CCN(CN3C(=O)CC(Cc4ccccc4)C3=O)CC2)c1 (racemic) | inactive | – | inactive | – | – | Non-Toxic | 100 | – | – | – | – | 300 | – | – | 300 | – |
| O=C1CC(Cc2ccccc2)C(=O)N1CN1CCN(c2ccccc2Cl)CC1 (racemic) | inactive | – | inactive | inactive | Non-Toxic | Non-Toxic | 100 | – | – | – | – | – | – | – | – | – |
| O=C1CC(Cc2ccccc2)C(=O)N1CN1CCN(c2cccc(Cl)c2)CC1 (racemic) | inactive | inactive | inactive | inactive | – | Non-Toxic | – | – | – | – | – | – | – | – | 300 | – |
| O=C1CC(Cc2ccccc2)C(=O)N1CN1CCN(c2ccccc2)CC1 (racemic) | inactive | inactive | inactive | inactive | – | Non-Toxic | – | – | – | – | – | – | – | – | 300 | – |
| CC(c1ccccc1)C1CC(=O)N(CN2CCOCC2)C1=O (racemic) | inactive | inactive | – | – | – | Non-Toxic | – | 300 | – | – | – | 300 | – | – | 300 | – |
| Cc1cccc(N2CCN(CN3C(=O)CC(C(C)c4ccccc4)C3=O)CC2)c1 (racemic) | inactive | inactive | inactive | inactive | – | Non-Toxic | – | – | – | – | – | – | – | – | 300 | – |
| CC(c1ccccc1)C1CC(=O)N(CN2CCN(c3cccc(Cl)c3)CC2)C1=O (racemic) | inactive | inactive | inactive | inactive | – | Non-Toxic | – | – | – | – | – | – | – | – | 300 | – |
| COC[C@@H](NC(C)=O)C(=O)NCc1ccccc1 [LACOSAMIDE] | – | – | – | – | – | – | – | – | 5.66 | – | – | – | 6 | – | – | – |
| CC[C@@H](C(N)=O)N1CCCC1=O [LEVETIRACETAM] | – | – | – | – | – | – | – | – | – | – | – | – | – | > 500 | – | – |
